In one assay the test system is duodenum. In words: Antispasmodic activity: barium chloride-induced contraction of isolated rat duodenum (Magnus). The note with it: barium chloride 10^-4 M, isolated rat duodenum, 37° C.; mean of 5 to 6 determinations. How it is done:
Fragments of duodenum are removed from male rats (200 g), fasted for 24 hours and killed by decapitation, and are mounted, after being washed, in a thermostatted (37° C.) isolated organ cell and maintained in survival in Tyrode's solution according to Magnus's classical technique.
The spasmogenic agent used is barium chloride (10^-4 M).
In the first instance, the spasmogenic agent is added to the nutrient bath and, as soon as the contraction of the organ reaches its maximum, the relaxant agent is added to the medium. Working in relation to a fixed concentration of barium chloride with variable concentrations of relaxant, the ED50 of the latter, capable of reducing the induced contraction by 50%, is determined.
The results expressed in Table IV below show the ratio ED50 Theo/ED50 product, established on the basis of the mean of the results of 5 to 6 determinations per product (ED50theophylline=8×10^-4 M).
For the compound `CCNc1ncc(Cl)n2ccnc12` [Compound 12, 5-Chloro-8-ethylaminoimidazo[1,2-a]pyrazine], the “ED50 Theo/ED50 product (antispasmodic activity)” value is reported as 27.

A further assay relates to histamine-induced bronchoconstriction, guinea pigs. In words: Antibronchospastic activity: histamine-induced bronchospasm in anesthetized guinea pigs. The assay is classed as in vivo, guinea pig. The note with it: intravenous, 30 seconds before histamine; mean of 5 to 8 determinations. How it is done:
Guinea pigs of both sexes weighing between 400 and 600 g are anesthetized with ethyl carbamate ([…] i.p.). After tracheotomy, the animal is placed under artificial respiration at a constant flowrate (Palmer pump 1 m1/100 g×60/min). A take-off at the tracheal cannula enables the volume of air to be gaged at each inhalation by means of a Marey drum. Bronchospasm is induced by intraveneous (jugular) administration of histamine. For each animal, the dose of histamine (8 to 12 μg/kg) inducing an increase in the recording trace equal to double its initial value is determined. The dose adopted should provide three identical responses at intervals of 10 minutes.
The test product is administered intraveneously and then, 30 seconds later, histamine is administered again.
As to `Nc1nccn2c(Br)cnc12` [Compound 5, 8-amino-3-bromoimidazo[1,2-a]pyrazine], the “ED50 Theo/ED50 product (bronchospasm induced in guinea pigs)” value amounted to 2. In the case of `Brc1cn2ccnc2c(N2CCOCC2)n1` [Compound 11, 6-bromo-8-morpholinoimidazo[1,2-a]pyrazine], the “ED50 Theo/ED50 product (bronchospasm induced in guinea pigs)” value is listed as 1. Same read-out and setting: then `Nc1nc(Br)cn2c(Br)cnc12` [Compound 13, 8-Amino-3,6-dibromoimidazo[1,2-a]pyrazine], with 3.5; and `CNc1nc(Br)cn2c(Br)cnc12` [Compound 14, 3,6-dibromo-8-methylaminoimidazo[1,2-a]pyrazine], with 1.9; and `CCNc1nc(Br)cn2c(Br)cnc12` [Compound 15, 3,6-dibromo-8-ethylaminoimidazo[1,2-a]pyrazine], with 1.6. Consider `Brc1cn2c(Br)cnc2c(N2CCOCC2)n1` [Compound 16, 3,6-dibromo-8-morpholinoimidazo[1,2-a]pyrazine], for which the “ED50 Theo/ED50 product (bronchospasm induced in guinea pigs)” value is reported as 1. Still for that read-out and setting: next, `CCOC(=O)c1cn2ccnc(NC)c2n1` [Compound 18, ethyl 8-methylaminoimidazo[1,2-a]pyrazine-2-carboxylate]: 1; `CCCNc1nccn2cc(C(=O)OCC)nc12` [Compound 19, ethyl 8-propylaminoimidazo[1,2-a]pyrazine-2-carboxylate]: less than 1. With `CCOC(=O)c1cn2ccnc(N3CCCCC3)c2n1` [Compound 20, ethyl 8-piperidylimidazo[1,2-a]pyrazine-2-carboxylate], the “ED50 Theo/ED50 product (bronchospasm induced in guinea pigs)” value is 1.

As to `CCOC(=O)c1cn2ccnc(N3CCOCC3)c2n1` [Compound 21, ethyl 8-morpholinylimidazo[1,2-a]pyrazine-2-carboxylate], the “ED50 Theo/ED50 product (bronchospasm induced in guinea pigs)” value is less than 1. The same measure, in the same setting: next, `CCOC(=O)c1cn2cc(Br)nc(N)c2n1` [Compound 22, ethyl 8-amino-6-bromoimidazo[1,2-a]pyrazine-2-carboxylate]: 1.5. The same measure, in the same setting: next, `CCOC(=O)c1cn2cc(Br)nc(NC)c2n1` [Compound 23, ethyl 6-bromo-8-methylaminoimidazo[1,2-a]pyrazine-2-carboxylate]: 1. For `CCNc1nc(Br)cn2cc(C(=O)OCC)nc12` [Compound 24, ethyl 6-bromo-8-ethylaminoimidazo[1,2-a]pyrazine-2-carboxylate], the “ED50 Theo/ED50 product (bronchospasm induced in guinea pigs)” value stood at 1. Same read-out and setting: next, `CCCNc1nc(Br)cn2cc(C(=O)OCC)nc12` [Compound 25, ethyl 6-bromo-8-propylaminoimidazo[1,2-a]pyrazine-2-carboxylate]: less than 1. For the compound `CCCCNc1nc(Br)cn2cc(C(=O)OCC)nc12` [Compound 26, ethyl 6-bromo-8-butylaminoimidazo[1,2-a]pyrazine-2-carboxylate], the “ED50 Theo/ED50 product (bronchospasm induced in guinea pigs)” value is recorded as less than 1.

In the case of `CCOC(=O)c1cn2cc(Br)nc(NC(C)CC)c2n1` (centres unmarked) [Compound 27, ethyl 6-bromo-8-sec-butylaminoimidazo[1,2-a]pyrazine-2-carboxylate], the “ED50 Theo/ED50 product (bronchospasm induced in guinea pigs)” value was less than 1. In the case of `CCOC(=O)c1cn2cc(Br)nc(N3CCCCC3)c2n1` [Compound 28, ethyl 6-bromo-8-piperidylimidazo[1,2-a]pyrazine-2-carboxylate], the “ED50 Theo/ED50 product (bronchospasm induced in guinea pigs)” value is less than 1.

With `CCOC(=O)c1cn2cc(Br)nc(N3CCOCC3)c2n1` [Compound 29, ethyl 6-bromo-8-morpholinylimidazo[1,2-a]pyrazine-2-carboxylate], the “ED50 Theo/ED50 product (bronchospasm induced in guinea pigs)” value is recorded as 1. The same measure, in the same setting: next, `CCOC(=O)c1cn2cc(Br)nc(NCCO)c2n1` [Compound 30, ethyl 6-bromo-8-(2-hydroxyethylamino)imidazo[1,2-a]pyrazine-2-carboxylate]: less than 1; `CNc1nc(Br)cn2cc(C(N)=O)nc12` [Compound 31, 6-Bromo-8-methylaminoimidazo[1,2-a]pyrazine-2-carboxamide]: 1. `CCOC(=O)Cc1cn2cc(Br)nc(N)c2n1` [Compound 32, ethyl 8-amino-6-bromoimidazo[1,2-a]pyrazine-2-acetate]: the “ED50 Theo/ED50 product (bronchospasm induced in guinea pigs)” value worked out at 1.6. Consider `CCOC(=O)Cc1cn2cc(Br)nc(NC)c2n1` [Compound 33, Ethyl 6-bromo-8-methylaminoimidazo[1,2-a]pyrazine-2-acetate], for which the “ED50 Theo/ED50 product (bronchospasm induced in guinea pigs)” value is 1. Still for that read-out and setting: next, `CNC(=O)c1nc2c(NC)nc(Cl)c(Cl)n2c1Cl` [Compound 34, 3,5,6-Trichloro-8-methylamino-N-methylimidazo[1,2-a]pyrazine-2-carboxamide]: 1.2. Still for that read-out and setting: then `N#Cc1cn2cc(Br)nc(N3CCOCC3)c2n1` [Compound 35, 6-Bromo-8-morpholinoimidazo[1,2-a]pyrazine-2-carbonitrile], with less than 1; and `Brc1cn2ccnc2c(NCc2ccco2)n1` [Compound 36, 6-bromo-8-furfurlaminoimidazo[1,2-a]pyrazine], with less than 1. Consider `Brc1cn2c(Br)cnc2c(NCc2ccco2)n1` [Compound 37, 3,6-dibromo-8-furfurylaminoimidazo[1,2-a]pyrazine], for which the “ED50 Theo/ED50 product (bronchospasm induced in guinea pigs)” value worked out at 1.4.

In the case of `Brc1cn2c(Br)cnc2c(N2CCCCC2)n1` [Compound 38, 3,6-dibromo-8-piperidylimidazo[1,2-a]pyrazine], the “ED50 Theo/ED50 product (bronchospasm induced in guinea pigs)” value is 1.1.

A further assay relates to guinea pig trachea. The experiment in a line: Isolated guinea pig trachea: anti-contractional activity against carbachol. The note with it: carbachol 10^-4 M, isolated guinea pig trachea; mean of 5 to 6 determinations. How it is done: Guinea pigs of both sexes weighing on average 400 to 600 g are sacrificed, and the tracheas are removed and placed at 37° C. in an oxygenated environment (95% O2 -5% CO2) in Krebs fluid of the following composition (mM): NaCl (116), MgSO4 (1.2), KCl (3.7), CaCl2 (2.6), KH2 PO4 (2.2), NaHCO3 (24.9), glucose (10). The tracheal segments are then mounted horizontally between two hooks, one of which is fixed to the base of the isolated organ cell and the other is attached to a myograph under a tension of 0.5 g. The organ is left at rest for one hour and is subjected to four washes. The contraction-inducing reagent (carbachol) is added at a concentration (10^-4 M) greater than the concentration giving the maximum effect. After stabilization of the contractional effect, gradually increasing accumulative amounts of the test products are added to the cell. The bronchodilatory effect is measured as the percentage inhibition of the maximal contraction and EC50 represents the concentration inhibiting this concentration by 50%.
`Nc1nccn2ccnc12` [Compound 1, 8-aminoimidazo[1,2-a]pyrazine]: the “EC50 Theo/EC50 product (anti-contractional activity, trachea)” value (from here on “EC50 Theo/EC50 product”) is reported as 1.5. With `CNc1nccn2ccnc12` [Compound 2, 8-methylaminoimidazo[1,2-a]pyrazine], the “EC50 Theo/EC50 product” value is reported as less than 1. As to `CCNc1nccn2ccnc12` [Compound 3, 8-ethylaminoimidazo[1,2-a]pyrazine], the “EC50 Theo/EC50 product” value is 1. On to `c1cn2ccnc2c(N2CCOCC2)n1` [Compound 4, 8-Morpholinoimidazo[1,2-a]pyrazine], for which the “EC50 Theo/EC50 product” value is on record as less than 1. With `Nc1nccn2c(Br)cnc12` [Compound 5, 8-amino-3-bromoimidazo[1,2-a]pyrazine], the “EC50 Theo/EC50 product” value came out at 11.

As for `CCNc1nccn2c(Br)cnc12` [Compound 7], the “EC50 Theo/EC50 product” value was determined as 5. Take `Brc1cn2ccnc2c(N2CCOCC2)n1` [Compound 11, 6-bromo-8-morpholinoimidazo[1,2-a]pyrazine]: the “EC50 Theo/EC50 product” value is recorded as less than 1. On to `c1coc(CNc2nccn3ccnc23)c1` [Compound 39, 8-furfurylaminoimidazo[1,2-a]pyrazine], for which the “EC50 Theo/EC50 product” value is given as less than 1.

The subject of a further assay is mice. The experiment in a line: Motor activity: spontaneous activity in mice (neurosedative effect). The assay is classed as in vivo, mouse. The note with it: 55 μmol/kg intraperitoneally, male mice, 50 minutes. How it is done:
The measurement of the neurosedative effect is based on the test of activity measurements in mice. […] Five minutes after the administration, the animals are placed in activity-measuring cages, which record their movements digitally by means of the interruption of beams of light. The results are recorded in Table IX and expressed as the percentage variation (increase or decrease ) in activity compared with the controls during a period of 50 minutes following the administration.
In the case of `CCOC(=O)c1cn2cc(Br)nc(NC)c2n1` [Compound 23, ethyl 6-bromo-8-methylaminoimidazo[1,2-a]pyrazine-2-carboxylate], the “spontaneous activity - % variation compared with the controls, decrease (.dwnarw.)” value is recorded as 43%.

The same assay, now with this note: 166 μmol/kg intraperitoneally, male mice, 50 minutes.
For `CCOC(=O)c1cn2cc(Br)nc(NC)c2n1` [Compound 23, ethyl 6-bromo-8-methylaminoimidazo[1,2-a]pyrazine-2-carboxylate], the “spontaneous activity - % variation compared with the controls, decrease (.dwnarw.)” value came out at 56%.

(Values after patent US5028605A, “8-alkylaminoimidazo(1,2-a)pyrazines and derivatives, their preparation and their application in therapy” (l'Universite de Montpellier I, priority 1986, dated 1991).)
